Reference: PubChem BioAssay (NCI)
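48-hour exposure; five concentrations; linearly interpolated endpoints. GI50 = concentration required for 50% inhibition of growth. TGI is the concentration that stops growth completely.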

Columns and labels:
Test in all cases: inhibition of tumour cell growth, NCI panel, 48 h
HOP-62 NSCLC = test system: HOP-62 NSCLC
DU-145 prostate = test system: DU-145 prostate
OVCAR-3 ovarian = test system: OVCAR-3 ovarian
SNB-75 CNS = test system: SNB-75 CNS
SN12C renal = test system: SN12C renal
SW-620 colon = test system: SW-620 colon
HOP-92 NSCLC = test system: HOP-92 NSCLC
IGROV1 ovarian = test system: IGROV1 ovarian
SNB-19 CNS = test system: SNB-19 CNS
SF-539 CNS = test system: SF-539 CNS

| Compound | TGI (HOP-62 NSCLC) [µM] | TGI (DU-145 prostate) [µM] | TGI (OVCAR-3 ovarian) [µM] | TGI (SNB-75 CNS) [µM] | TGI (SN12C renal) [µM] | TGI (SW-620 colon) [µM] | TGI (HOP-92 NSCLC) [µM] | TGI (IGROV1 ovarian) [µM] | TGI (SNB-19 CNS) [µM] | TGI (SF-539 CNS) [µM] | GI50 (HOP-62 NSCLC) [µM] | GI50 (DU-145 prostate) [µM] | GI50 (OVCAR-3 ovarian) [µM] | GI50 (SNB-75 CNS) [µM] | GI50 (SN12C renal) [µM] | GI50 (SW-620 colon) [µM] | GI50 (IGROV1 ovarian) [µM] | GI50 (SNB-19 CNS) [µM] | GI50 (SF-539 CNS) [µM] |
| --- | --- | --- | --- | --- | --- | --- | --- | --- | --- | --- | --- | --- | --- | --- | --- | --- | --- | --- | --- |
| O=S(=O)(c1ccc(Br)cc1)n1c2ccc(Br)cc2c2nc3ccccc3nc21 | > 100 | > 100 | > 100 | 82.6 | > 100 | > 100 | > 100 | > 100 | > 100 |  |  |  |  |  |  |  |  |  |  |
| C/C=C/[C@@]1(OC(=O)c2ccccc2)C[C@@H]2CCCC[C@@H]21 | 29 | 31.4 |  | 27.3 | 36.7 | 48.3 |  | 32.1 | 31.6 | 33.1 |  |  |  |  |  |  |  |  |  |
| CO/C(=N\N=C\c1cc(OC)ccc1OC)c1ccncc1 | > 10 |  |  | > 10 | > 10 | > 10 |  | > 10 | > 10 | > 10 |  |  |  |  |  |  |  |  |  |
| CN(C)CCNc1ccc(C(=O)NCCCN(C)CCCNC(=O)c2ccc(NCCN(C)C)c3c(=O)c4ccccc4[nH]c23)c2[nH]c3ccccc3c(=O)c12 | 1.5 | 2.48 | 7.5 |  | 1.02 | 2.36 | 0.616 | 0.229 | 1.92 | < 0.0309 |  |  |  |  |  |  |  |  |  |
| CC1=NN(c2nc(N)nc(-c3ccccc3S(N)(=O)=O)n2)C(C)(C)C1 | > 100 | > 100 | > 100 |  |  | > 100 | > 100 | > 100 |  | > 100 |  |  |  |  |  |  |  |  |  |
| O=C1CSC2(CC(/C=C/c3ccccc3)=NN2c2cccc(S(=O)(=O)O)c2)N1c1nc2ccccc2s1 (stereo not given) |  | 54.4 |  | 59.2 | 71.2 | > 100 | 77.3 | 56.6 | 51.7 | > 100 |  |  |  |  |  |  |  |  |  |
| CC12CC3C(CC1SCC(=O)O2)C3(C)C (stereo not given) |  |  | > 100 | > 100 | > 100 |  | > 100 | > 100 |  | > 100 |  |  |  |  |  |  |  |  |  |
| O=C(Cn1c(=O)oc2ccc(C(=O)c3ccc(F)cc3)cc21)c1ccc([N+](=O)[O-])cc1 | > 100 | > 100 |  | > 100 | > 100 | > 100 | > 100 | 78.3 | > 100 | > 100 |  |  |  |  |  |  |  |  |  |
| CC[C@@]1(O)C(=O)OCc2c1cc1n(c2=O)Cc2c-1nc1ccccc1c2/C=N\NC(=O)C(N)CC(C)C (stereo not given in full) | 0.382 | > 100 | 2.3 | < 0.0248 | 1.61 | > 40.2 | 5.35 | > 22 | > 100 |  |  |  |  |  |  |  |  |  |  |
| O=C(COc1ccc(OCC(=O)N2C(=O)CC(=O)N(c3ccccc3)C2=S)cc1)N1C(=O)CC(=O)N(c2ccccc2)C1=S |  | > 100 |  | > 100 | > 100 | > 100 | > 100 | > 100 | > 100 |  |  |  |  |  |  |  |  |  |  |
| S=c1sc2c(Cl)ncnc2n1-c1ccccc1 | 29.3 |  | 28.9 | 27.4 | 29.4 | 35.1 | 34.3 | 28.2 | 32.9 | 29.9 |  |  |  |  |  |  |  |  |  |
| O=c1cc(CNC2CCCC2)[nH]c(=O)[nH]1 | > 100 | > 100 | > 100 | > 100 | > 100 | > 100 |  | > 100 | > 100 | > 100 |  |  |  |  |  |  |  |  |  |
| O=C1C2CCCCC2C(=O)N1n1c(Cc2ccc(Cl)cc2)n[nH]c1=O (stereo not given) | > 100 |  | > 100 | > 100 | > 100 | > 100 | > 100 | > 100 | > 100 | > 100 |  |  |  |  |  |  |  |  |  |
| COc1c2cc([N+](=O)[O-])cc1CNC(=O)CN1CCOCCOCCN(CCOCCOCC1)CC(=O)NC2 | > 100 | > 100 | > 100 | > 100 | > 100 | > 100 | > 100 | > 100 | > 100 |  |  |  |  |  |  |  |  |  |  |
| O=S(=O)(Oc1ccc2oc3ccccc3c2c1-c1c(OS(=O)(=O)C(F)(F)F)ccc2oc3ccccc3c12)C(F)(F)F | > 100 | > 100 | > 100 | > 100 |  | > 100 | > 100 | > 100 | > 100 | > 100 |  |  |  |  |  |  |  |  |  |
| COc1cc2c(cc1OCCCN1CCN(CCCOc3cc4c(cc3OC)C(=O)N3CCC[C@H]3C=N4)CC1)C=CC(C)(C)O2 | 2.5 | 2.1 | 2.67 | 2.74 | 1.95 | 1.93 |  | > 100 |  | 2.51 | 1.25 | 0.889 | 1.36 | 1.26 | 0.584 | 0.634 | 0.606 | 2.22 | 1.26 |
| C=C1C(=O)OC2/C=C(\C)C(OC(C)=O)C3OC3C(C)(O)CC(OC(=O)/C(C)=C/C)C12 (stereo not given) | 37.4 |  | 15.8 | 97.4 | 47.4 | 1.89 | 23.5 | 35.7 | 33.7 | 14.2 |  |  |  |  |  |  |  |  |  |
| CN(C)c1nc2sc3c(c2c(=O)o1)CCCC3 | > 100 | > 100 |  | 95.2 | > 100 | > 100 | > 100 | > 100 | > 100 | > 100 |  |  |  |  |  |  |  |  |  |
| COc1ccc(Cn2c(C)nc3c2C(=O)c2ccccc2C3=O)cc1 | 51.7 |  | 24 | 71.9 | > 75 | > 75 |  | 38.6 | > 75 | 38.2 |  |  |  |  |  |  |  |  |  |
| O=C1C=CC2CCC1C2 (stereo not given) | > 100 | > 100 | > 100 | > 100 | > 100 | > 100 |  | > 100 | 96.3 | 90.2 |  |  |  |  |  |  |  |  |  |
| CC1=NN(C(=O)CSc2nnc(SCC(=O)N3N=C(C)CC3(O)c3ccccc3)s2)C(O)(c2ccccc2)C1 (stereo not given) | > 100 | > 100 | > 100 |  | > 100 | > 100 | > 100 | > 100 | > 100 |  |  |  |  |  |  |  |  |  |  |
| O=C(O)CCCl | > 5000 |  |  | > 5000 | > 5000 | > 5000 | > 5000 | > 5000 |  | > 5000 |  |  |  |  |  |  |  |  |  |
| COCOc1ccc(C(=O)C(C)c2ccc(OCOC)cc2OCOC)c(O)c1 (stereo not given) | > 100 | > 100 |  | > 100 | > 100 | > 100 | > 100 | > 100 | > 100 | > 100 |  |  |  |  |  |  |  |  |  |
